Consider 1 molecule from US20230348453A1, “HALOGENATED-HETEROARYL AND OTHER HETEROCYCLIC KINASE INHIBITORS, AND USES THEREOF” (iOmx Therapeutics AG, priority 2020, published 2023).

The term IC50 denotes the concentration that gives 50% inhibition. Broadly, the half-life is the time in which the quantity being followed falls by half.

One data set addresses SIK3 (Homo sapiens (Human), UniProt Q9Y2K2). As to conditions: read-out: SIK3 IC50.
A short description of data set [1]: Murine plasma protein binding. The settings on record: Table 5A.
Data set [2] can be described thus: in vitro. As to conditions: mouse, microsomes.
For data set [3] the following is noted: microsomes.
The conditions of data set [4]: microsomes. This is another data set of the same source.
The nature of data set [5]: Human plasma-protein binding. As to conditions: Table 5A.
A short description of data set [6]: in vitro. As to conditions: human, microsomes.

Some results are limits rather than exact numbers.

For `Cc1nc(Nc2ncc(C(=O)Nc3c(C)nn(C)c3C)s2)cc(N2CCN(CCO)CC2)n1` [Compound C8, 2-((6-(4-(2-hydroxyethyl)piperazin-1-yl)-2-methylpyrimidin-4-yl)amino)-N-(1,3,5-trimethyl-1H-pyrazol-4-yl)thiazole-5-carboxamide], the “Kinetic solubility” value is 189 µM. Also, at SIK3, the half-maximal inhibitory concentration (IC50) is 9.73 µM. In addition, the “Murine plasma protein binding, Percentage unbound (%)” value in data set [1] came to 62%. Moreover, the half-life in the data set “in vitro [2]” was above 1.67 h. Moreover, the Mouse liver microsomal stability, Intrinsic clearance (L/min/mg) in data set [3] is below 14 µL/min/mg. In data set [4], the Human liver microsomal stability, Intrinsic clearance was below 14 µL/min/mg. Also, the “Human plasma-protein binding, Percentage unbound (%)” value in data set [5] is on record as 5%. In the data set “in vitro [6]”, this molecule had a half-life above 1.67 h.
